This is an account of results in patent publication US9375004B2 (Bayer Intellectual Property GmbH, priority 2010, dated 2016).

Structures are written as SMILES. Values joined by “and” are separate entries in the source; they are usually repeats but may differ in a detail not shown here. Equal entries are not always repeated. Where two headings read alike, the source gives them in different places.

Data set [1] concerns Phakopsora pachyrhizi. Description: Phakopsora test (soybeans)/protective. It counts as in vivo. The settings on record: 250 ppm, protective, evaluated 11 days after inoculation.
The subject of data set [2] is Fusarium nivale (var. majus). Description: Fusarium nivale (var. majus)-test (wheat)/preventive. Conditions: preventive, evaluated 5 days after inoculation.
Procedure: Fusarium Nivale (Var. Majus)-Test (Wheat)/Preventive
Solvent: 49 parts by weight of N,N-dimethylacetamide
(§1) Emulsifier: 1 part by weight of alkylaryl polyglycol ether
After the spray coating has been dried, the plants are slightly injured by using a sandblast and afterwards they are sprayed with a conidia suspension of Fusarium nivale (var. majus).
The plants are placed in the greenhouse under a translucent incubation cabinet at a temperature of approximately 10° C. and a relative atmospheric humidity of approximately 100%.
The test is evaluated 5 days after the inoculation.
Data set [3] concerns Venturia inaequalis. Description: Venturia test (apples)/preventive. The settings on record: 100 ppm, preventive, evaluated 10 days after inoculation.
Procedure: Venturia Test (Apples)/Preventive
(§2) Solvent: 24.5 parts by weight of acetone • 24.5 parts by weight of N,N-dimethylformamide
as §1
After the spray coating has dried on, the plants are inoculated with an aqueous conidia suspension of the causal agent of apple scab (Venturia inaequalis) and then remain for 1 day in an incubation cabinet at approximately 20° C. and a relative atmospheric humidity of 100%.
The plants are then placed in a greenhouse at approximately 21° C. and a relative atmospheric humidity of approximately 90%.
The test is evaluated 10 days after the inoculation.
For data set [4], the system named is Rhizoctonia solani. Kind of data set: Rhizoctonia test (rice)/protective. It counts as in vivo. Conditions: 250 ppm, protective, evaluated 4 days after inoculation. As to the method: Rhizoctonia Test (Rice)/Protective
Solvent: 28.5 parts by weight of acetone
Emulsifier: 1.5 part by weight of alkylaryl polyglycol ether
1 day after the treatment, the plants are inoculated with hyphae of Rhizoctonia solani.
Evaluation is carried out 4 days after the inoculation.

In data set [5] the test system is Pyrenophora teres. Kind of data set: Pyrenophora teres-test (barley)/preventive. It counts as in vivo. Conditions: 500 ppm, preventive, evaluated 8 days after inoculation.
The test system of data set [6] is Pyricularia oryzae. The format is in vivo.
A short description of data set [7]: logP by HPLC on reversed-phase column (EEC Directive 79/831 Annex V.A8). The settings on record: HPLC on reversed-phase column (C 18), EEC Directive 79/831 Annex V.A8.
The test system of data set [8] is Puccinia triticina. Kind of data set: Puccinia triticina-test (wheat)/preventive. It counts as in vivo. The settings on record: 500 ppm, preventive, evaluated 8 days after inoculation.
The subject of data set [9] is Uromyces appendiculatus. Conditions: 100 ppm, beans, preventive, evaluated 10 days after inoculation.
For data set [10], the system named is Botrytis cinerea. Description: Botrytis test (beans)/preventive. Conditions: 100 ppm, preventive, lesion size 2 days after inoculation.
Procedure: Botrytis Test (Beans)/Preventive
as §2, §1
After the spray coating has dried on, 2 small pieces of agar covered with growth of Botrytis cinerea are placed on each leaf. The inoculated plants are placed in a darkened chamber at 20° C. and a relative atmospheric humidity of 100%.
2 days after the inoculation, the size of the lesions on the leaves is evaluated.
Data set [11] relates to Cochliobolus miyabeanus. Description: Cochliobolus test (rice)/protective. It counts as in vivo. Conditions: 250 ppm, protective, evaluated 4 days after inoculation.
For data set [12], the system named is Alternaria solani. Description: Alternaria test (tomato)/preventive. The format is in vivo. The settings on record: 500 ppm, preventive, evaluated 7 days after inoculation.
The subject of data set [13] is Sphaerotheca fuliginea. Kind of data set: Sphaerotheca test (cucumber)/preventive. It counts as in vivo. The settings on record: 500 ppm, preventive, evaluated 7 days after inoculation.
The test system of data set [14] is Septoria tritici. Description: Septoria tritici-test (wheat)/preventive. It counts as in vivo. Conditions: 500 ppm, preventive, evaluated 21 days after inoculation.
The nature of data set [15]: physchem.

As for `Cn1nc(C(F)F)c(C(=O)Nc2ccccc2C2CC2C2CC2)c1Cl` (single isomer, unassigned) [Example 47], the Efficacy came to 98% in data set [1]; 86% in data set [2] (500 ppm, listed as 47 from this invention); 100% in [3]; 100% in data set [4]; 100% in data set [5]; 90% in data set [6] (in vivo). Besides, the Efficacy in data set [8] and in data set [9] was 100% each time. In addition, the logP in data set [7] was 3.76.

Consider `Cn1nc(C(F)F)c(C(=O)Nc2ccccc2C2CC2C2CC2)c1Cl` (single isomer, unassigned) [Example 48], for which the Efficacy in [1] amounted to 99%; in data set [2] (500 ppm, listed as 48 from this invention), 86%; in data set [3], 100%; in data set [4], 98%; in data set [5], 86%; in data set [8] it was 100%. The Efficacy in data set [9] is recorded as 100%. Further, in data set [7], the log partition coefficient (logP) was 3.85.

Turning to `Cn1nc(C(F)F)c(C(=O)Nc2ccccc2CCC(C)(C)C)c1F` [Example 13], the Efficacy is reported as 98% in data set [1]; 94% in data set [10]; 85% in data set [11]; 100% in data set [2] (500 ppm); 100% in [12]; 100% in data set [3]. Also, the Efficacy stood at 100% in data set [4]; 100% in data set [13]; 100% in [5]; 97% in data set [6] (in vivo); 100% in data set [8]; 100% in data set [14]. Further, in data set [9], the Efficacy stood at 100%. This molecule showed a logP in data set [7] of 3.83.

`Cn1nc(C(F)F)c(C(=O)Nc2ccccc2CCC(C)(C)C)c1Cl` [Example 14]: the Efficacy is listed as 98% in [1]; 99% in data set [10]; 90% in [11]; 100% in data set [2] (500 ppm); 100% in data set [3]; 100% in [4]. Further, the Efficacy stood at 100% in [5]; 98% in [6] (250 ppm, rice, protective, evaluated 5 days after inoculation); 100% in data set [8]; 93% in data set [14]; 100% in data set [9]. In addition, the chromatographic logP in data set [15] (logP (acidic), HPLC, 0.1% aqueous formic acid/acetonitrile) is 4.01; in data set [15] (logP, HPLC on reversed-phase column (C 18), EEC Directive 79/831 Annex V.A8), 4.1.

Regarding `CC(CC(C)(C)C)c1ccccc1NC(=O)c1c(C(F)F)nn(C)c1F` (centres unmarked) [Example 21], the Efficacy in [1] was determined as 98%; in [10] it was 100%; in data set [11], 85%; in [12] it was 95%; in data set [3] it was 100%; in data set [4] it was 100%. Moreover, the Efficacy in data set [13] came out at 95%; in [5] it was 95%; in data set [6] (in vivo), 85%; in data set [8], 100%; in data set [14], 100%; in data set [9], 100%. The molecule also yielded a logP in [7] of 4.04.

Regarding `Cn1nc(C(F)F)c(C(=O)Nc2ccccc2C2CC2C2CC2)c1F` (centres unmarked) [Example 46], the Efficacy in data set [1] is listed as 85%; in data set [10], 99%; in data set [12] it was 100%; in data set [3], 100%; in data set [4], 97%; in data set [13] it was 94%. In addition, the Efficacy in data set [5] was 100%; in data set [6] (in vivo), 96%; in data set [8], 100%; in data set [14] it was 89%; in data set [9] it was 100%. The logP in data set [7] amounted to 3.67.

Take `CC(C)C1C2CCC1c1c(NC(=O)c3c(C(F)F)nn(C)c3F)cccc12` (centres unmarked) [Example 66]: the Efficacy in data set [1] is on record as 98%; in data set [10], 99%; in data set [11] it was 93%; in data set [2] (250 ppm), 93%; in data set [2] (500 ppm), 86%; in [12], 100%. Further, the Efficacy in data set [3], in [4], in data set [13], in [5], in data set [6] (in vivo) and in [8] was 100% in each case. For the same molecule, the Efficacy in data set [14] and in [9] was 100% in each case. In addition, the logP in [7] is recorded as 4.41.

For `Cn1nc(C(F)F)c(C(=O)Nc2ccc(F)cc2-c2ccc(Cl)c(Cl)c2)c1F` [Example 116], the Efficacy is reported as 85% in data set [1]; 100% in [10]; 90% in data set [11]; 100% in data set [12]; 100% in [3]; 97% in data set [4]. Besides, the Efficacy in data set [13] was 98%; in [5] it was 100%; in data set [6] (in vivo), 97% and 90%; in data set [8] it was 100%; in data set [14], 100%; in data set [9] it was 100%. The protection result in data set [6] (in vivo) is recorded as “at least 90%”. The logP in data set [7] is 3.89.

As for `Cn1nc(C(F)F)c(C(=O)Nc2ccccc2-c2ccc(C(F)(F)F)c(F)c2)c1Cl` [Example 148], the Efficacy in data set [1] amounted to 98%; in data set [10] it was 100%; in data set [11], 95%; in data set [2] (500 ppm) it was 86%; in data set [3] it was 100%; in data set [4] it was 100%. For the same molecule, the Efficacy in data set [5] is on record as 100%; in data set [6] (in vivo), 80%; in [8] it was 100%; in data set [14] it was 100%; in data set [9], 100%. Further, the logP in data set [7] is listed as 3.77.

As a reminder, the logP is a log measure of how a compound divides between an organic and an aqueous phase. A word on the chromatographic logP: it is lipophilicity estimated from chromatographic retention. Low values mean a more hydrophilic compound, high ones a more lipophilic compound.
